From ChEMBL document CHEMBL1137029, “Substituted benzylamino-6-(trifluoromethyl)pyrimidin-4(1H)-ones: a novel class of selective human A-FABP inhibitors” (Bioorg Med Chem Lett, 2004)

Biological target: Fatty acid-binding protein, heart (Homo sapiens, UniProt P05413)
Sequence (P05413 whole entry): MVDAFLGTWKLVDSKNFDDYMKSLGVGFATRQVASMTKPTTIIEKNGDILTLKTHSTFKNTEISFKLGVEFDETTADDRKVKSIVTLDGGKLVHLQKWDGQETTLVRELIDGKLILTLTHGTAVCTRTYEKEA

IC50	SMILES
> 100 µM	Oc1cc(C(F)(F)F)nc(NCc2ccc(Cl)cc2)n1
> 100 µM	CN(Cc1ccccc1)c1nc(C(F)(F)F)cc(=O)[nH]1
